Assay results: the supplement of paper PMC10627819

Columns and labels:
S. aureus Newman [1] = assay: fitness (endpoint OD595 vs no drug) (fraction); higher = more growth
Method in brief: (§1)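 Cultures at OD595 0.01 were dispensed into 384-well plates in TSB, LB Lennox or CY and incubated at 37 °C. Every 30 min for 14 h, OD595 was read and corrected by the first reading. Fitness is the optical density at entry into stationary phase relative to the robust mean of no-drug control wells, capped at 1.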

S. pneumoniae D39V [2] = assay: as above
Method in brief: as §1

S. aureus DSM 20231 [3] = assay: as above
Method in brief: as §1

S. aureus Newman [4] = assay: Bliss interaction score (quartile over a dose matrix) (fitness difference); higher = more antagonism (negative = synergy)
Method in brief: (§2)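 Quartiles of the Bliss score were taken over technical, biological and donor/recipient replicates. That score is observed fitness minus the product of the single-drug fitness values, which were inferred from combination data. Fitness itself is OD595 at entry into stationary phase divided by the plate's robust no-drug mean, with a cap at 1.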

B. subtilis 168 = assay: as above
Method in brief: as §2

S. pneumoniae D39V [5] = assay: as above
Method in brief: as §2

S. aureus DSM 20231 [6] = assay: as above
Method in brief: as §2
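For Bliss interaction score (quartile over a dose matrix) in this document: first quartile when negative (synergy) and third quartile when positive (antagonism).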

CN(N=O)C(=O)N[C@@H](C=O)[C@@H](O)[C@H](O)[C@H](O)CO [Streptozotocin] + Cn1nnc(-c2ccc(-c3ccc(N4C[C@H](CO)OC4=O)cc3F)cn2)n1 [Tedizolid]
fitness
Conditions	partner 0.03125 µg/mL	partner 0.0625 µg/mL	partner 0.125 µg/mL	partner 0.25 µg/mL
S. aureus DSM 20231 [3], first compound 0.15 µg/mL	–	0.799	0.553	0.207
S. aureus DSM 20231 [3], first compound 0.3 µg/mL	–	0.833	0.58	0.195
S. aureus DSM 20231 [3], first compound 0.6 µg/mL	–	0.701	0.5	0.152
S. aureus Newman [1], first compound 0.15 µg/mL	–	0.822	0.737	0.304
S. aureus Newman [1], first compound 0.3 µg/mL	–	0.638	–	0.297
S. aureus Newman [1], first compound 0.6 µg/mL	–	0.471	0.409	0.151
S. pneumoniae D39V [2], first compound 1.2 µg/mL	0.921	0.923	0.809	–
S. pneumoniae D39V [2], first compound 2.4 µg/mL	0.921	0.908	0.828	–
S. pneumoniae D39V [2], first compound 4.8 µg/mL	0.932	0.868	0.87	–

fitness, S. pneumoniae D39V [2], one replicate
Conditions	first compound 1.2 µg/mL	first compound 2.4 µg/mL	first compound 4.8 µg/mL
partner 0.25 µg/mL	0.598	0.653	0.791
partner 0.5 µg/mL	0.426	0.464	0.547

Conditions	Bliss interaction score
B. subtilis 168	-0.0702
S. aureus DSM 20231 [6]	0.0552
S. aureus Newman [4]	-0.0487
S. pneumoniae D39V [5]	-0.075

Cc1cc(NS(=O)(=O)c2ccc(N)cc2)no1 [Sulfamethoxazol] + CN[C@H](CC(C)C)C(=O)N[C@H]1C(=O)N[C@@H](CC(N)=O)C(=O)N[C@H]2C(=O)N[C@H]3C(=O)N[C@H](C(=O)N[C@H](C(=O)O)c4cc(O)cc(O)c4-c4cc3ccc4O)[C@H](O)c3ccc(c(Cl)c3)Oc3cc2cc(c3O[C@@H]2O[C@H](CO)[C@@H](O)[C@H](O)[C@H]2O[C@H]2C[C@](C)(N)[C@H](O)[C@H](C)O2)Oc2ccc(cc2Cl)[C@H]1O [Vancomycin]
fitness
Conditions	first compound 1 µg/mL	first compound 2 µg/mL	first compound 4 µg/mL
S. aureus DSM 20231 [3], partner 0.1875 µg/mL	0.929	0.932	0.94
S. aureus DSM 20231 [3], partner 0.375 µg/mL	≥ 1	≥ 1	0.962
S. aureus DSM 20231 [3], partner 0.75 µg/mL	1	0.983	0.998
S. aureus Newman [1], partner 0.1875 µg/mL	0.991	0.988	≥ 1
S. aureus Newman [1], partner 0.375 µg/mL	0.993	0.968	≥ 1
S. aureus Newman [1], partner 0.75 µg/mL	0.977	0.953	≥ 1
S. pneumoniae D39V [2], partner 0.03125 µg/mL	0.964	0.961	0.97
S. pneumoniae D39V [2], partner 0.0625 µg/mL	0.909	0.899	0.961
S. pneumoniae D39V [2], partner 0.125 µg/mL	0.925	0.94	0.952

one replicate
Conditions	fitness
S. aureus Newman [1], first compound 8 µg/mL, partner 0.1875 µg/mL	0.87
S. aureus Newman [1], first compound 8 µg/mL, partner 0.375 µg/mL	0.896
S. aureus Newman [1], first compound 8 µg/mL, partner 0.75 µg/mL	0.915
S. pneumoniae D39V [2], first compound 1 µg/mL, partner 0.25 µg/mL	0.262
S. pneumoniae D39V [2], first compound 1 µg/mL, partner 0.5 µg/mL	0.0171
S. pneumoniae D39V [2], first compound 2 µg/mL, partner 0.25 µg/mL	0.258
S. pneumoniae D39V [2], first compound 2 µg/mL, partner 0.5 µg/mL	0.0591
S. pneumoniae D39V [2], first compound 4 µg/mL, partner 0.25 µg/mL	0.772
S. pneumoniae D39V [2], first compound 4 µg/mL, partner 0.5 µg/mL	0.496

Conditions	Bliss interaction score
B. subtilis 168	-0.0423
S. aureus DSM 20231 [6]	0.0457
S. aureus Newman [4]	0.0422
S. pneumoniae D39V [5]	0.0444

Cc1cc(NS(=O)(=O)c2ccc(N)cc2)no1 [Sulfamethoxazol] + Cn1nnc(-c2ccc(-c3ccc(N4C[C@H](CO)OC4=O)cc3F)cn2)n1 [Tedizolid]
fitness
Conditions	first compound 1 µg/mL	first compound 2 µg/mL	first compound 4 µg/mL
S. aureus DSM 20231 [3], partner 0.0625 µg/mL	0.919	0.922	0.883
S. aureus DSM 20231 [3], partner 0.125 µg/mL	0.586	0.626	0.565
S. aureus DSM 20231 [3], partner 0.25 µg/mL	0.213	0.232	0.223
S. aureus Newman [1], partner 0.0625 µg/mL	0.975	0.958	0.965
S. aureus Newman [1], partner 0.125 µg/mL	0.901	0.94	0.934
S. aureus Newman [1], partner 0.25 µg/mL	0.576	–	–
S. pneumoniae D39V [2], partner 0.03125 µg/mL	0.942	0.945	0.964
S. pneumoniae D39V [2], partner 0.0625 µg/mL	0.933	0.944	0.914
S. pneumoniae D39V [2], partner 0.125 µg/mL	0.754	0.781	0.777

fitness, one replicate
Conditions	partner 0.0625 µg/mL	partner 0.125 µg/mL	partner 0.25 µg/mL	partner 0.5 µg/mL
S. aureus Newman [1], first compound 8 µg/mL	0.867	0.873	0.687	–
S. pneumoniae D39V [2], first compound 1 µg/mL	–	–	0.48	0.549
S. pneumoniae D39V [2], first compound 2 µg/mL	–	–	0.529	0.548
S. pneumoniae D39V [2], first compound 4 µg/mL	–	–	0.558	0.505

Conditions	Bliss interaction score
B. subtilis 168	-0.056
S. aureus DSM 20231 [6]	0.0501
S. aureus Newman [4]	0.0706
S. pneumoniae D39V [5]	-0.103
